Reference: patent publication US8372845B2, “Pyrazine derivatives as enac blockers” (Novartis AG, priority 2010, dated 2013)
Where a name gives a salt, the structure may show the parent alone.

How the values were obtained:
[1] = Stability in human plasma; format: in vitro ADME; conditions: pooled human plasma (lithium heparin), 1 μM compound, 37° C., 1 hour incubation
Experimental: The stability of the compounds of the invention in human plasma may be measured as follows:
Stability in Human Plasma
Blood was taken from healthy volunteers in lithium heparin tubes and plasma was prepared by centrifugal separation of blood cells at 1500 g. Plasma from at least 3 individuals was pooled and used for compound stability determination.
Compounds were prepared in 100% DMSO at a concentration of 10 mM and serially diluted to a concentration of 100 μM. Incubations were performed at a final concentration of 1 μM and were initiated by addition of 3 μl of 100 μM compound stock solution into 297 μl plasma, pre-warmed in a water bath to 37° C., followed by brief vortex mixing. 50 μl aliquots of plasma were removed at 4 timepoints over a 1 hour incubation period and quenched immediately by protein precipitation achieved by addition of the aliquot of plasma to a pre-prepared 96 well plate containing 150 μl of acetonitrile containing an appropriate internal standard. Acetonitrile quenched samples were vortex mixed followed by centrifugation for 20 minutes at 1500 g to remove the precipitated proteins. Initial compound levels (at time=0 minutes) was established by spiking compound into pre-quenched plasma at the same concentration as used in the incubation. The supernatant was then removed, diluted 1:1 with water and analysed for compound remaining by liquid chromatography-tandem mass spectrometry (Waters Acquity HPLC, Applied Biosystems API4000). The plasma elimination rate constant of the compound was calculated by fitting the peak area ratio of compound:internal standard to an exponential decay function and the half life calculated by division of the natural log of 2 by the elimination rate constant (Microsoft Excel).

[2] = biological target: T1, epithelial sodium channel (ENaC) (Homo sapiens, UniProt P37088+P51168+P51170); assay: Short circuit current (ISC) measurements in Human Bronchial Epithelial cells (HBEC-ENaC); format: cell-based; conditions: inhibition of amiloride-sensitive ISC, HBECs at air-liquid interface, Ussing chamber, apical addition
T1 construct: host or cells: primary Human Bronchial Epithelial cells (HBECs), differentiated at air-liquid interface
T1 sequence (P37088 1-669): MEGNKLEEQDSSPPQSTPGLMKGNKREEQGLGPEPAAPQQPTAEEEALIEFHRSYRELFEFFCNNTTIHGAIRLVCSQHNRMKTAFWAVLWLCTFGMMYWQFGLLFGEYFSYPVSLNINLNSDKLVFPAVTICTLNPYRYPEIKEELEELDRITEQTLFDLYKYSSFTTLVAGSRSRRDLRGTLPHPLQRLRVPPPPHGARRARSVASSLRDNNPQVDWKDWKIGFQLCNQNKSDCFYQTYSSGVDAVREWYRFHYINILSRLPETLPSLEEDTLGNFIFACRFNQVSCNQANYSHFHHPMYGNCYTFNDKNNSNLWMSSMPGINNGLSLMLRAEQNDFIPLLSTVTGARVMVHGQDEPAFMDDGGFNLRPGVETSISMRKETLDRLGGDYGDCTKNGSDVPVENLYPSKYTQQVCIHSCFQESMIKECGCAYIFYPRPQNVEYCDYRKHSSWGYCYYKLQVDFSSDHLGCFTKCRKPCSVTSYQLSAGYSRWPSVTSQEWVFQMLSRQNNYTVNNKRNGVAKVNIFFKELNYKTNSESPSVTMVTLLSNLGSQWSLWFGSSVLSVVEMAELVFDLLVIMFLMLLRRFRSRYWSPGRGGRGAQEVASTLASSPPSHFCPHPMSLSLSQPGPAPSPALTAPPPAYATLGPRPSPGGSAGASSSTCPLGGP
T1 sequence (P51168 1-640): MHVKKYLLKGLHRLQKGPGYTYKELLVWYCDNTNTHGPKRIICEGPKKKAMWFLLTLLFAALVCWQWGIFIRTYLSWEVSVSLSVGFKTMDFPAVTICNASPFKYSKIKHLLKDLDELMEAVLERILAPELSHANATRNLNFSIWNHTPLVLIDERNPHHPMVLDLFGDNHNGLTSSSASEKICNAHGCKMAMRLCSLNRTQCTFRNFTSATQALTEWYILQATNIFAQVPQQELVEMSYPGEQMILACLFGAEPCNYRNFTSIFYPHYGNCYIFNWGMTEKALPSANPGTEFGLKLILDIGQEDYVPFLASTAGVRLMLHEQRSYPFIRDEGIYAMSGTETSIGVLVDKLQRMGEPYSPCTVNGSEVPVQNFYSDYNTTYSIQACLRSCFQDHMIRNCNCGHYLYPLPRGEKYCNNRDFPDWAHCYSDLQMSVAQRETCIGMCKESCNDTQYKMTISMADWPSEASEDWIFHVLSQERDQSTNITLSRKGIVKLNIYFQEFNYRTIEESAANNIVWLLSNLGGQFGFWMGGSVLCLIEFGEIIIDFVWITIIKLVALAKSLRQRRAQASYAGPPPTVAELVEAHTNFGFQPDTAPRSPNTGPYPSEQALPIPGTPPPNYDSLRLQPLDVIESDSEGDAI
T1 sequence (P51170 1-649): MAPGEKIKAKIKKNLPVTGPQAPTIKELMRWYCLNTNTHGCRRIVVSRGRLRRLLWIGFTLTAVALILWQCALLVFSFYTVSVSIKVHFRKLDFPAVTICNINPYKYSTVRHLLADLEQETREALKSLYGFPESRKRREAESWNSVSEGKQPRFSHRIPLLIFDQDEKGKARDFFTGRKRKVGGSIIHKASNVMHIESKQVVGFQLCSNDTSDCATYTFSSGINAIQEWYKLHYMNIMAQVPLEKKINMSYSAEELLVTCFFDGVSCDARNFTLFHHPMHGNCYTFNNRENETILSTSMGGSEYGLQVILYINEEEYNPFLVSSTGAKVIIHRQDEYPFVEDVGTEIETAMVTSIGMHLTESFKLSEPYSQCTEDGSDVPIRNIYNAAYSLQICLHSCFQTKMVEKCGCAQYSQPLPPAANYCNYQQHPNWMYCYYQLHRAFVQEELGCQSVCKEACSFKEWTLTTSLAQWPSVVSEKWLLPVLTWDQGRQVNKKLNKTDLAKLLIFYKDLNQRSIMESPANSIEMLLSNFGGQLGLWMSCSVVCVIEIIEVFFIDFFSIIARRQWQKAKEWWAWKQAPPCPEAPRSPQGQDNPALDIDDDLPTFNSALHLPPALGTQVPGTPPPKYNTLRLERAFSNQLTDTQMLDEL
Experimental: Human Bronchial Epithelial cells (HBECs) (Cambrex) were cultured under air-liquid interface conditions to provide a well differentiated mucociliary phenotype.
Medium was changed every 48 hours until cells were 90% confluent. […] Cells were maintained submerged for the first 7 days in culture, after which time they were exposed to an apical air interface for the remainder of the culture period. At this time, media was changed to DMEM:F12 media containing 2% v/v Ultroser G for the remainder of culture. Amphotericin B was removed from all media 3 feeds prior to use in the Ussing Chambers. Cells were used between days 7 and 21 after establishment of the apical-air interface. At all stages of culture, cells were maintained at 37° C. in 5% CO2 in an air incubator.
Short Circuit Current (ISC) Measurements
Snapwell inserts were mounted in Vertical Diffusion Chambers (Costar) and were bathed with continuously gassed Ringer solution (5% CO2 in O2; pH 7.4) maintained at 37° C. containing (in mM): 120 NaCl, 25 NaHCO3, 3.3 KH2PO4, 0.8 K2HPO4, 1.2 CaCl2, 1.2 MgCl2, and 10 glucose. The solution osmolarity was between 280 and 300 mOsmol/kg H2O for all physiological salt solutions used. Cells were voltage clamped to 0 mV (model EVC4000; WPI). RT was measured by applying a 1- or 2-mV pulse at 30-s intervals and calculating RT by Ohm's law. Data were recorded using a PowerLab workstation (ADInstruments).
Test compounds were prepared as a 10 mM stock solution in DMSO (95%). Serial 3-fold dilutions were freshly prepared in an appropriate vehicle (distilled H2O or Ringers solution). The initial concentration was added to the apical chamber as a 1000× concentrate in 5 μL, resulting in a final 1× concentration the 5 mL volume of the Ussing chamber. Subsequent additions of compound were added in a 3.3 μL volume of the 1000× serially diluted stock solution. At the completion of the concentration-response experiment, amiloride (10 μM) was added into the apical chamber to enable the total amiloride-sensitive current to be measured. An amiloride control IC50 was established at the start of each experiment.
Results are expressed as the mean % inhibition of the amiloride-sensitive ISC. […] Cell inserts were typically run in duplicate and the IC50 calculated on the mean % inhibition data.

| Structure (SMILES) | half-life at 1 μM [1] | IC50 [2] |
| --- | --- | --- |
| CCCN(CCC)C(=O)COC(=O)CCNS(=O)(=O)c1cccc(C(=O)N2CCC3(CC2)CN/C(=N\C(=O)c2nc(Cl)c(N)nc2N)N3)c1 [Example 1.0, 3-(3-{2-[(E)-3,5-Diamino-6-chloro-pyrazine-2-carbonylimino]-1,3,8-triaza-spiro[4.5]decane-8-carbonyl}-benzenesulfonylamino)-propionic acid dipropylcarbamoylmethyl ester succinate salt] | 2 min | 17 nM |
| CN(CCO)C(=O)COC(=O)COc1ccc(CCC(=O)N2CCC3(CC2)CN/C(=N/C(=O)c2nc(Cl)c(N)nc2N)N3)cc1 [Example 1.1, [4-(3-{2-[(Z)-3,5-Diamino-6-chloro-pyrazine-2-carbonylimino]-1,3,8-triaza-spiro[4.5]dec-8-yl}-3-oxo-propyl)-phenoxy]-acetic acid [(2-hydroxy-ethyl)-methyl-carbamoyl]-methyl ester] |  | 419 nM |
| Nc1nc(N)c(C(=O)/N=C2\NCC3(CCN(C(=O)CCc4ccc(OCC(=O)OCC(=O)OC5CCCCC5)cc4)CC3)N2)nc1Cl [Example 1.2, [4-(3-{2-[(E)-3,5-Diamino-6-chloro-pyrazine-2-carbonylimino]-1,3,8-triaza-spiro[4.5]dec-8-yl}-3-oxo-propyl)-phenoxy]-acetic acid cyclohexyl oxycarbonylmethyl ester] | 3 min | 10 nM |
| Nc1nc(N)c(C(=O)/N=C2\NCC3(CCN(C(=O)c4cccc(S(=O)(=O)NCCC(=O)OCC(=O)OC5CCCCC5)c4)CC3)N2)nc1Cl [Example 1.3, 3-(3-{2-[(E)-3,5-Diamino-6-chloro-pyrazine-2-carbonylimino]-1,3,8-triaza-spiro[4.5]decane-8-carbonyl}-benzenesulfonylamino)-propionic acid cyclohexyloxy carbonylmethyl ester] | 4 min | 3 nM |
| CN(C)C(=O)COC(=O)COc1ccc(CCC(=O)N2CCC3(CC2)CN/C(=N\C(=O)c2nc(Cl)c(N)nc2N)N3)cc1 [Example 1.4, [4-(3-{2-[(E)-3,5-Diamino-6-chloro-pyrazine-2-carbonylimino]-1,3,8-triaza-spiro[4.5]dec-8-yl}-3-oxo-propyl)-phenoxy]-acetic acid dimethylcarbamoylmethyl ester] |  | 302 nM |
| CCCN(CCC)C(=O)COC(=O)COc1ccc(CCC(=O)N2CCC3(CC2)CN/C(=N\C(=O)c2nc(Cl)c(N)nc2N)N3)cc1 [Example 2.0, [4-(3-{2-[(E)-3,5-Diamino-6-chloro-pyrazine-2-carbonylimino]-1,3,8-triaza-spiro[4.5]dec-8-yl}-3-oxo-propyl)-phenoxy]-acetic acid dipropylcarbamoylmethyl ester] | 1 min | 32 nM |
| CC(C)(C)OC(=O)COC(=O)COc1ccc(CCC(=O)N2CCC3(CC2)CN/C(=N\C(=O)c2nc(Cl)c(N)nc2N)N3)cc1 [Example 2.1, [4-(3-{2-[(E)-3,5-Diamino-6-chloro-pyrazine-2-carbonylimino]-1,3,8-triaza-spiro[4.5]dec-8-yl}-3-oxo-propyl)-phenoxy]-acetic acid tert-butoxycarbonylmethyl ester] | 5 min | 30 nM |
| Nc1nc(N)c(C(=O)/N=C2\NCC3(CCN(C(=O)CCc4ccc(OCC(=O)OCC(=O)OCc5ccccc5)cc4)CC3)N2)nc1Cl [Example 2.2, [4-(3-{2-[(E)-3,5-Diamino-6-chloro-pyrazine-2-carbonylimino]-1,3,8-triaza-spiro[4.5]dec-8-yl}-3-oxo-propyl)-phenoxy]-acetic acid benzyloxycarbonylmethyl ester] |  | 12 nM |
| CCN(CC)C(=O)COC(=O)COc1ccc(CCC(=O)N2CCC3(CC2)CN/C(=N\C(=O)c2nc(Cl)c(N)nc2N)N3)cc1 [Example 2.3, [4-(3-{2-[(E)-3,5-Diamino-6-chloro-pyrazine-2-carbonylimino]-1,3,8-triaza-spiro[4.5]dec-8-yl}-3-oxo-propyl)-phenoxy]-acetic acid diethylcarbamoylmethyl ester] |  | 89 nM |
| Nc1nc(N)c(C(=O)/N=C2\NCC3(CCN(C(=O)CCc4ccc(OCC(=O)OCC(=O)N5CCCCC5)cc4)CC3)N2)nc1Cl [Example 2.4, [4-(3-{2-[(E)-3,5-Diamino-6-chloro-pyrazine-2-carbonylimino]-1,3,8-triaza-spiro[4.5]dec-8-yl}-3-oxo-propyl)-phenoxy]-acetic acid 2-oxo-2-piperidin-1-yl-ethyl ester] |  | 110 nM |
